Tests used:
Format in all cases: cell-based, human
J82 cells = assay: CCK-8 anti-proliferative assay, J82; conditions: Homo sapiens, J82; Table 6; co-incubated 48 h; read-out: Anti-proliferative activity (IC50 ± standard deviation) J82
Experimental: (§1) The obtained quinazolinyl-aryl urea derivatives were screened for compounds with optimal activity using the following method.
(§2) Experimental Procedure for Anti-Proliferative Activity Evaluation: The CCK-8 assay was employed. Cells in logarithmic growth phase were harvested, adjusted to appropriate density, and uniformly seeded into 96-well plates using a multichannel pipette (180 μL cell suspension containing complete medium per well, 5,000 cells/well). Blank control wells (containing basal medium, CCK-8 solution, and DMSO only) were set. Cells were incubated at 37° C. under 5% CO2. After 70% confluency was reached, test compounds (target compounds/positive controls) were added at final concentrations of 1, 2, 4, 6, 8, 12, 16, 24, and 30 μM (3 repeated wells per concentration). Compounds were pre-dissolved in DMSO, sterilized, and diluted with medium before adding 20 μL/well. After co-incubation for designated durations, 10 μL CCK-8 solution was added per well followed by 1-4 h incubation (different cells have different incubation times). […] Inhibition rates were calculated as: (ODcontrol−ODtreatment)/ODcontrol×100%. Median inhibitory concentrations (IC50 values) were derived using Origin v8.0 software.

UM-UC-3 cells = assay: CCK-8 anti-proliferative assay, UM-UC-3; conditions: Homo sapiens, UMUC3; Table 6; co-incubated 48 h; read-out: Anti-proliferative activity (IC50 ± standard deviation) UM-UC-3
Experimental: as §1, §2

T24 cells = assay: CCK-8 anti-proliferative assay, T24; conditions: Homo sapiens, T-24; Table 6; co-incubated 48 h; read-out: Anti-proliferative activity (IC50 ± standard deviation) T24
Outline: (§3)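 Compound was added at final concentrations of 1 to 30 μM, in triplicate, to cells at 70% confluence (5,000 per well seeded). After co-incubation, CCK-8 was added for 1–4 h depending on the cell line. Inhibition from OD450 relative to untreated cells gave IC50.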

5637 cells = assay: CCK-8 anti-proliferative assay, 5637; conditions: Homo sapiens; Table 6; co-incubated 48 h; read-out: Anti-proliferative activity (IC50 ± standard deviation) 5637
Outline: (§4)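 Dose range 1–30 μM final (nine levels, n=3), added at 70% confluency to 5,000 cells/well cultured at 37° C., 5% CO2. CCK-8 incubation 1-4 h depending on cell type.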

143B cells = assay: CCK-8 anti-proliferative assay, 143B; conditions: Homo sapiens, 143B; Table 7; co-incubated 48 h; read-out: Anti-proliferative activity (IC50 ± standard deviation) 143B
Source text: (§5) The obtained quinazolinyl-aryl urea derivatives were screened for compounds with optimal activity using the following method. All cell lines employed in this experiment were of human origin, including: bladder cancer cells: J82, UM-UC-3, T24, 5637, pancreatic cancer cells: BxPC-3, PANC-1, osteosarcoma cells: 143B, MG-63, cervical cancer cells: HeLa, breast cancer cells: MCF-7, NSCLC cells: A549, hepatoblastoma cells: Hep G2, and ovarian cancer cells: SK-OV-3, as well as normal cell lines: immortalized ureteral epithelial cells (SV-HUC-1), embryonic lung fibroblasts (WI-38).
(§6) Experimental Procedure for Anti-Proliferative Activity Evaluation: The CCK-8 assay was employed. Cells in logarithmic growth phase were harvested, adjusted to appropriate density, and uniformly seeded into 96-well plates using a multichannel pipette (180 μL cell suspension containing complete medium per well, 5,000 cells/well). Blank control wells (containing basal medium, CCK-8 solution, and DMSO only) were set. Cells were incubated at 37° C. under 5% CO2. After 70% confluency was reached, test compounds (target compounds/positive controls) were added at final concentrations of 1, 2, 4, 6, 8, 12, 16, 24, and 30 μM (3 repeated wells per concentration). Compounds were pre-dissolved in DMSO, sterilized, and diluted with medium before adding 20 μL/well. After co-incubation for designated durations, 10 μL CCK-8 solution was added per well followed by 1-4 h incubation (different cells have different incubation times). The reaction was terminated, and OD (optical density) values at 450 nm were measured using a microplate reader. Inhibition rates were calculated as: (ODcontrol−ODtreatment)/ODcontrol×100%. Median inhibitory concentrations (IC50 values) were derived using Origin v8.0 software.

MG-63 cells = assay: CCK-8 anti-proliferative assay, MG-63; conditions: Homo sapiens, MG-63; Table 7; co-incubated 48 h; read-out: Anti-proliferative activity (IC50 ± standard deviation) MG-63
Source text: as §5, §6

BxPC-3 cells = assay: CCK-8 anti-proliferative assay, BxPC-3; conditions: Homo sapiens, BXPC-3; Table 7; co-incubated 48 h; read-out: Anti-proliferative activity (IC50 ± standard deviation) BxPC-3
Outline: as §3

PANC-1 cells = assay: CCK-8 anti-proliferative assay, PANC-1; conditions: Homo sapiens, PANC-1; Table 7; co-incubated 48 h; read-out: Anti-proliferative activity (IC50 ± standard deviation) PANC-1
Outline: as §3

HeLa cells = assay: CCK-8 anti-proliferative assay, HeLa; conditions: Homo sapiens, HeLa; Table 8; co-incubated 48 h; read-out: Anti-proliferative activity (IC50 ± standard deviation) HeLa
Experimental: as §1, §2

MCF-7 cells = assay: CCK-8 anti-proliferative assay, MCF-7; conditions: Homo sapiens, MCF7; Table 8; co-incubated 48 h; read-out: Anti-proliferative activity (IC50 ± standard deviation) MCF-7
Outline: as §4

A549 cells = assay: CCK-8 anti-proliferative assay, A549; conditions: Homo sapiens, A549; Table 8; co-incubated 48 h; read-out: Anti-proliferative activity (IC50 ± standard deviation) A549
Outline: as §4

Hep G2 cells = assay: CCK-8 anti-proliferative assay, Hep G2; conditions: Homo sapiens, HepG2; Table 8; co-incubated 48 h; read-out: Anti-proliferative activity (IC50 ± standard deviation) Hep G2
Outline: as §3

SK-OV-3 cells = assay: CCK-8 anti-proliferative assay, SK-OV-3; conditions: Homo sapiens, SK-OV-3; Table 9; co-incubated 48 h; read-out: Anti-proliferative activity (IC50 ± standard deviation) SK-OV-3
Experimental: as §1, §2

[1] = tested on: immortalized ureteral epithelial cells (SV-HUC-1); assay: CCK-8 anti-proliferative assay, normal cells SV-HUC-1; conditions: Homo sapiens, SV-HUC1; Table 9; normal cells; co-incubated 48 h; read-out: Anti-proliferative activity (IC50 ± standard deviation) SV-HUC-1
Experimental: as §1, §2

[2] = tested on: embryonic lung fibroblasts (WI-38); assay: CCK-8 anti-proliferative assay, normal cells WI-38; conditions: Homo sapiens, WI-38, Table 9, co-incubated 48 h, read-out: Anti-proliferative activity (IC50 ± standard deviation) WI-38
Source text: as §5, §6

Row | Compound | IC50 (T24 cells) [µM] | IC50 (BxPC-3 cells) [µM] | IC50 (PANC-1 cells) [µM] | IC50 (HeLa cells) [µM] | IC50 (MCF-7 cells) [µM] | IC50 (A549 cells) [µM] | IC50 (SK-OV-3 cells) [µM] | IC50 (J82 cells) [µM] | IC50 (UM-UC-3 cells) [µM] | IC50 (5637 cells) [µM] | IC50 (143B cells) [µM] | IC50 (MG-63 cells) [µM] | IC50 (Hep G2 cells) [µM] | IC50 [1] [µM] | IC50 [2] [µM]
1 | COc1cc2ncnc(NCc3cccc(NC(=O)Nc4ccc(C(C)C)cc4)c3)c2cc1OCCCCCCN1CCN(CCN2CCOCC2)CC1 [Compound 8-1i, N-(3-(((7-methoxy-6-((6-(4-(2-morpholinoethyl)piperazin-1-yl)hexyl)oxy)quinazolin-4-yl)amino)methyl)phenyl)-N′-(4-isopropylphenyl)urea] | 16.3 ± 0.81 | 13.3 ± 1.05 | 14.4 ± 0.67 | 14.1 ± 0.89 | 11.5 ± 0.76 | 16 ± 0.64 | 7.68 ± 0.55 | 22.4 ± 1.82 | 10 ± 0.52 | 10.3 ± 0.97 | 9.31 ± 0.97 | 11.1 ± 0.95 | 10.6 ± 0.89 | 19.3 ± 1.39 | 20.3 ± 1.63
2 | COc1cc2ncnc(NCc3cccc(NC(=O)Nc4ccc(F)cc4)c3)c2cc1OCCCCCCN1CCN(CCN2CCOCC2)CC1 [Compound 8-1l, N-(3-(((7-methoxy-6-((6-(4-(2-morpholinoethyl)piperazin-1-yl)hexyl)oxy)quinazolin-4-yl)amino)methyl)phenyl)-N′-(4-fluorophenyl)urea] | 10.4 ± 0.92 | 13 ± 0.97 | > 30 | 21.3 ± 1.24 | 15.2 ± 0.93 | 21.4 ± 1.96 | 7.72 ± 0.59 | 6.85 ± 0.57 | 16.8 ± 0.88 | 15.8 ± 0.95 | 9.03 ± 0.61 | 7.03 ± 0.48 | 7.29 ± 0.54 | 15.9 ± 0.86 | 22.8 ± 0.94
3 | COc1cc2ncnc(NCc3cccc(NC(=O)Nc4ccccc4Cl)c3)c2cc1OCCCCCCN1CCN(CCN2CCOCC2)CC1 [Compound 8-1m, N-(3-(((7-methoxy-6-((6-(4-(2-morpholinoethyl)piperazin-1-yl)hexyl)oxy)quinazolin-4-yl)amino)methyl)phenyl)-N′-(2-chlorophenyl)urea] | 8.82 ± 0.49 | 7.79 ± 0.44 | 23.2 ± 2.03 | 13.8 ± 0.77 | 14.8 ± 0.86 | 15 ± 0.93 | 12.8 ± 0.42 | 7.21 ± 0.66 | 11.1 ± 0.74 | 6.06 ± 0.58 | 5.62 ± 0.51 | 5.69 ± 0.65 | 7.83 ± 0.66 | 12 ± 0.57 | 14 ± 0.78
4 | COc1cc2ncnc(NCc3cccc(NC(=O)Nc4ccc(Cl)c(Cl)c4)c3)c2cc1OCCCCCCN1CCN(CCN2CCOCC2)CC1 [Compound 8-1o, N-(3-(((7-methoxy-6-((6-(4-(2-morpholinoethyl)piperazin-1-yl)hexyl)oxy)quinazolin-4-yl)amino)methyl)phenyl)-N′-(3,4-dichlorophenyl)urea] | 7.31 ± 0.55 | 7.73 ± 0.82 | > 30 | 12.4 ± 0.89 | 9.33 ± 0.71 | 11.8 ± 0.63 | 9.34 ± 0.98 | 6.88 ± 0.49 | 5.84 ± 0.53 | 5.34 ± 0.39 | 5.99 ± 0.43 | 5.89 ± 0.47 | 6.83 ± 0.52 | 10.7 ± 0.51 | 9.93 ± 0.53

Compounds with a lower IC50 (T24 cells), results first:

Row | IC50 (T24 cells) [µM] | IC50 (BxPC-3 cells) [µM] | IC50 (PANC-1 cells) [µM] | IC50 (HeLa cells) [µM] | IC50 (MCF-7 cells) [µM] | IC50 (A549 cells) [µM] | IC50 (SK-OV-3 cells) [µM] | Compound | IC50 (J82 cells) [µM] | IC50 (UM-UC-3 cells) [µM] | IC50 (5637 cells) [µM] | IC50 (143B cells) [µM] | IC50 (MG-63 cells) [µM] | IC50 (Hep G2 cells) [µM] | IC50 [1] [µM] | IC50 [2] [µM]
5 | 6.89 ± 0.48 | 7.61 ± 0.76 | 9.63 ± 0.92 | 8.03 ± 0.62 | 8.49 ± 0.88 | 12.3 ± 0.84 | 6.19 ± 0.44 | CCc1cccc(CC)c1NC(=O)Nc1cccc(CNc2ncnc3cc(OC)c(OCCCCCCN4CCN(CCN5CCOCC5)CC4)cc23)c1 [Compound 8-1h, N-(3-(((7-methoxy-6-((6-(4-(2-morpholinoethyl)piperazin-1-yl)hexyl)oxy)quinazolin-4-yl)amino)methyl)phenyl)-N′-(2,6-diethylphenyl)urea] | 5.64 ± 0.39 | 8.74 ± 0.52 | 5.41 ± 0.36 | 4.46 ± 0.24 | 4.92 ± 0.46 | 4.67 ± 0.38 | 17.8 ± 1.59 | 23.2 ± 0.76
6 | 6.83 ± 0.87 | 7.78 ± 0.53 | 19.5 ± 1.53 | 6.32 ± 0.37 | 6.64 ± 0.52 | 10.9 ± 0.67 | 8.76 ± 0.74 | COc1cc2ncnc(NCc3cccc(NC(=O)Nc4ccc(F)c(C(F)(F)F)c4)c3)c2cc1OCCCCCCN1CCN(CCN2CCOCC2)CC1 [Compound 8-1q] | 4.26 ± 0.31 | 6.25 ± 0.88 | 5.78 ± 0.69 | 4.57 ± 0.44 | 5.81 ± 0.63 | 7.09 ± 0.35 | 7.61 ± 0.41 | 7.97 ± 0.63
7 | 3.91 ± 0.34 | 7.39 ± 0.62 | 11.9 ± 0.94 | 5.76 ± 0.57 | 4.12 ± 0.15 | 8.62 ± 0.55 | 8.51 ± 0.87 | COc1cc2ncnc(NCc3cccc(NC(=O)Nc4ccc(Cl)c(C(F)(F)F)c4)c3)c2cc1OCCCCCCN1CCN(CCN2CCOCC2)CC1 [Compound 8-1r] | 6.33 ± 0.61 | 6.14 ± 0.53 | 3.59 ± 0.16 | 5.41 ± 0.39 | 5.31 ± 0.46 | 5.59 ± 0.45 | 7.02 ± 0.53 | 7.89 ± 0.66
8 | 6.95 ± 0.51 | 7.31 ± 0.76 | 12.7 ± 0.71 | 6.81 ± 0.45 | 10.3 ± 0.68 | 12.6 ± 0.48 | 7.29 ± 0.66 | COc1cc2ncnc(NCc3cccc(NC(=O)Nc4cc(C(F)(F)F)cc(C(F)(F)F)c4)c3)c2cc1OCCCCCCN1CCN(CCN2CCOCC2)CC1 [Compound 8-1s, N-(3-(((7-methoxy-6-((6-(4-(2-morpholinoethyl)piperazin-1-yl)hexyl)oxy)quinazolin-4-yl)amino)methyl)phenyl)-N′-(3,5-bis(trifluoromethyl)phenyl)urea] | 5.63 ± 0.54 | 6.72 ± 0.53 | 5.93 ± 0.44 | 4.95 ± 0.69 | 7.17 ± 0.52 | 4.55 ± 0.47 | 7.31 ± 0.35 | 7.71 ± 0.54
